# Test results as given in ChEMBL document CHEMBL6120947, “Synthesis and Antiosteoporotic Characterization of Diselenyl Maleimides: Discovery of a Potent Agent for the Treatment of Osteoporosis by Targeting RANKL” (J Med Chem, 2024).
# The source made the active and inactive calls. No cut-off for these calls is given here.
# How the values were obtained:
# [1] = test system: BMDM; assay: Inhibition of osteoclastogenesis in M-CSF/RANKL-induced osteoclast differentiation in C57BL/6J mouse BMDM cells at 1 uM measured for 1 to 3 days by TRAP staining based analysis; format: functional, cell-based; conditions: time 1-3 day
# [2] = test system: BMDM; assay: Inhibition of osteoclastogenesis in M-CSF/RANKL-induced osteoclast differentiation in C57BL/6J mouse BMDM cells assessed as suppression of multinucleated osteoclasts formation incubated for 6 days by TRAP staining based analysis; format: functional, cell-based
# [3] = Cytotoxicity against C57BL/6J mouse BMDM cells assessed as decrease in cell viability at 20 uM incubated for 48 hrs by MTT assay; format: toxicity, cell-based
# [4] = test system: BMDM; assay: Inhibition of osteoclastogenesis in M-CSF/RANKL-induced osteoclast differentiation in C57BL/6J mouse BMDM cells assessed as decrease in NFATc1 mRNA level at 1 uM measured for 5 days by qRT-PCR analysis; format: functional, cell-based; conditions: time 5.0 day
# [5] = test system: BMDM; assay: Inhibition of osteoclastogenesis in M-CSF/RANKL-induced osteoclast differentiation in C57BL/6J mouse BMDM cells assessed as decrease in c-Fos mRNA level at 1 uM measured for 5 days by qRT-PCR analysis; format: functional, cell-based; conditions: time 5.0 day
# [6] = test system: BMDM; assay: Inhibition of osteoclastogenesis in M-CSF/RANKL-induced osteoclast differentiation in C57BL/6J mouse BMDM cells assessed as decrease in NFATc1 level at 1 uM measured for 5 days by Western blot analysis; format: functional, cell-based; conditions: time 5.0 day
# [7] = test system: BMDM; assay: Inhibition of osteoclastogenesis in M-CSF/RANKL-induced osteoclast differentiation in C57BL/6J mouse BMDM cells assessed as reduction in bone resorption area measured after 6 days by hydroxyapatite resorption assay; format: functional, cell-based; conditions: dose <= 2.0 µM, time 6.0 day
# [8] = test system: BMDM; assay: Inhibition of osteoclastogenesis in M-CSF/RANKL-induced osteoclast differentiation in C57BL/6J mouse BMDM cells assessed as reduction in c-Fos level measured after 5 days by Western blot analysis; format: functional, cell-based; conditions: dose <= 2.0 µM, time 5.0 day
# [9] = test system: BMDM; assay: Inhibition of osteoclastogenesis in M-CSF/RANKL-induced osteoclast differentiation in C57BL/6J mouse BMDM cells assessed as reduction in NFATc1 level measured after 5 days by Western blot analysis; format: functional, cell-based; conditions: dose <= 2.0 µM, time 5.0 day
# [10] = test system: BMDM; assay: Inhibition of osteoclastogenesis in M-CSF/RANKL-induced osteoclast differentiation in C57BL/6J mouse BMDM cells assessed as reduction in p38 phosphorylation at 1 uM measured upto 60 mins by Western blot analysis; format: functional, cell-based
# [11] = test system: BMDM; assay: Inhibition of osteoclastogenesis in M-CSF/RANKL-induced osteoclast differentiation in C57BL/6J mouse BMDM cells assessed as reduction in ERK phosphorylation at 1 uM measured upto 60 mins by Western blot analysis; format: functional, cell-based
# [12] = test system: BMDM; assay: Effect in ERK level in M-CSF/RANKL-induced osteoclast differentiation in C57BL/6J mouse BMDM cells at 1 uM measured upto 60 mins by Western blot analysis; format: functional, cell-based
# [13] = test system: BMDM; assay: Effect in JNK level in M-CSF/RANKL-induced osteoclast differentiation in C57BL/6J mouse BMDM cells at 1 uM measured upto 60 mins by Western blot analysis; format: functional, cell-based
# [14] = test system: BMDM; assay: Inhibition of osteoclastogenesis in M-CSF/RANKL-induced osteoclast differentiation in C57BL/6J mouse BMDM cells assessed as reduction in p65 phosphorylation at 1 uM measured upto 60 mins by Western blot analysis; format: functional, cell-based
# [15] = test system: BMDM; assay: Effect in p65 level in M-CSF/RANKL-induced osteoclast differentiation in C57BL/6J mouse BMDM cells at 1 uM measured upto 60 mins by Western blot analysis; format: functional, cell-based
# [16] = test system: BMDM; assay: Inhibition of osteoclastogenesis in M-CSF/RANKL-induced osteoclast differentiation in C57BL/6J mouse BMDM cells assessed as reduction in I-kappaB-alpha phosphorylation at 1 uM measured upto 60 mins by Western blot analysis; format: functional, cell-based
# [17] = test system: BMDM; assay: Inhibition of osteoclastogenesis in M-CSF/RANKL-induced osteoclast differentiation in C57BL/6J mouse BMDM cells assessed as reduction in I-kappaB-alpha degradation at 1 uM measured upto 60 mins by Western blot analysis; format: functional, cell-based
# [18] = test system: MC3T3-E1; assay: Cytotoxicity against mouse MC3T3-E1 cells at 0.5 to 2 uM incubated for 7 days by MTT assay; format: toxicity, cell-based; conditions: mc3t3-e1, 168 h, dose 0.5-2 µM, time 7 day
# [19] = test system: MC3T3-E1; assay: Effect on osteoblast mineralization in mouse MC3T3-E1 cells assessed as change in calcium nodules at 0.5 to 2 uM incubated for 7 days by ARS staining based analysis; format: functional, cell-based; conditions: dose 0.5-2 µM, time 7.0 day
# [20] = test system: MC3T3-E1; assay: Effect on osteoblast differentiation in mouse MC3T3-E1 cells assessed as change in ALP mRNA level at 0.5 to 2 uM incubated for 7 days by qRT-PCR analysis; format: functional, cell-based; conditions: dose 0.5-2 µM, time 7.0 day
# [21] = test system: MC3T3-E1; assay: Effect on osteoblast differentiation in mouse MC3T3-E1 cells assessed as change in collagen I mRNA level at 0.5 to 2 uM incubated for 7 days by qRT-PCR analysis; format: functional, cell-based; conditions: dose 0.5-2 µM, time 7.0 day
# [22] = test system: MC3T3-E1; assay: Effect on osteoblast differentiation in mouse MC3T3-E1 cells assessed as change in Runx2 level at 0.5 to 2 uM incubated for 7 days by Western blot analysis; format: functional, cell-based; conditions: dose 0.5-2 µM, time 7.0 day
# [23] = test system: MC3T3-E1; assay: Effect on osteoblast differentiation in mouse MC3T3-E1 cells assessed as change in BMP2 level at 0.5 to 2 uM incubated for 7 days by Western blot analysis; format: functional, cell-based; conditions: dose 0.5-2 µM, time 7.0 day
# [24] = Toxicity in OVX-induced osteoporosis C57BL/6 mouse model assessed as body weight change at 10 mg/kg, po administered every other day for 8 weeks; format: organism-based; conditions: in vivo, 1344 h
# [25] = test system: Mus musculus; assay: Anti-osteoporosis effect in OVX-induced osteoporosis C57BL/6 mouse model assessed as increase in Tb.Th value at 10 mg/kg, po administered every other day for 8 weeks by micro-CT analysis; format: functional, organism-based
# [26] = molecular target: T1, Tumor necrosis factor ligand superfamily member 11 (Homo sapiens, UniProt O14788); assay: Binding affinity to CM5 sensor chip-immobilized RANKL (unknown origin) assessed as dissociation constant by SPR analysis
# T1 sequence (O14788 whole entry): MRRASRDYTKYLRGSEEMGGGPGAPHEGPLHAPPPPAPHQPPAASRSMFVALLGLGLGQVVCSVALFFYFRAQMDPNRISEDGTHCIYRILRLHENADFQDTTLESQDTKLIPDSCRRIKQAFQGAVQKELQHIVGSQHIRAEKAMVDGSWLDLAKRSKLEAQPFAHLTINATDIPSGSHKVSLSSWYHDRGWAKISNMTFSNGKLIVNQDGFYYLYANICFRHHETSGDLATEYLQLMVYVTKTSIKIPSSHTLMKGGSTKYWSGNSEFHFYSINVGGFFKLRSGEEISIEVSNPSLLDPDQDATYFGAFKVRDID
# [27] = molecular target: T2, Tumor necrosis factor ligand superfamily member 11 (Homo sapiens) (UniProt O14788); assay: Binding affinity to CM5 sensor chip-immobilized RANKL (unknown origin) by SPR analysis; conditions: dose 0.98-31.25 µM
# T2 sequence (whole entry): T1 sequence (O14788 whole entry)
# [28] = molecular target: T2, Tumor necrosis factor ligand superfamily member 11 (Homo sapiens); assay: Binding affinity to RANKL (unknown origin) incubated for 15 mins by RED-NHS dye based MST assay
# [29] = Inhibition of C57BL/6 mouse T cell proliferation upto 2 uM incubated for 5 days by APC-Annexin V staining based analysis; format: toxicity; conditions: 120 h, time 5 day
structure (smiles),measurement,setting,value
O=C1C([Se]c2ccccc2)=C([Se]c2ccccc2)C(=O)N1Cc1ccccc1,inhibition,[1],Active
same,IC50,[2]; 144 h,360 nM
same,inhibition,"[2]; dose <= 2.0 µM, time 6.0 day",Dose-dependent-effect
same,Activity,[3],Non-toxic
same,inhibition,[4],Active
same,inhibition,[5],Active
same,inhibition,[6],Active
same,inhibition,[7],Dose-dependent-effect
same,inhibition,[8],Dose-dependent-effect
same,inhibition,[9],Dose-dependent-effect
same,inhibition,[10],Active
same,inhibition,[11],Active
same,Activity,[12],No effect
same,Activity,[13],No effect
same,inhibition,[14],Active
same,Activity,[15],No effect
same,inhibition,[16],Active
same,inhibition,[17],Active
same,Activity,[18],Non-toxic
same,Activity,[19],No effect
same,Activity,[20],No effect
same,Activity,[21],No effect
same,Activity,[22],No effect
same,Activity,[23],No effect
same,Activity,[24],Non-toxic
same,Activity,[25],Active; Displayed Similar Effect With That Exhibited By Alendronate
same,Kd,[26],920 nM
same,Activity,[27],Dose-dependent-effect
same,Activity,[28],1.51 µM
same,Activity,[29],Non-toxic
